Assay results reported in patent US20160016951A1 (Merck Patent GmbH, priority 2014, published 2016).

What follows are molecules tested against T1, CDK8 (CDK8/CycC) (Homo sapiens, UniProt P49336) (assay: FRET based Lanthascreen binding competition assay). Conditions: 5 nM CDK8/CycC, 10 nM Alexa647-Tracer, 1% DMSO, 60 min at RT; read-out: IC50 CDK8 binding.
T1 construct: purchased Invitrogen PV4402
Procedure, shortened: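 CDK8 co-expressed with CycC and labelled through biotinylated anti-His antibody and streptavidin-Eu was preincubated with compound for 20 min at RT. An Alexa647 ATP-competitive probe was then added for 60 min at RT in the dark. Probe displacement was read as loss of TR-FRET (excitation 340 nm, emission 650 nm).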

T1 sequence (P49336 whole entry): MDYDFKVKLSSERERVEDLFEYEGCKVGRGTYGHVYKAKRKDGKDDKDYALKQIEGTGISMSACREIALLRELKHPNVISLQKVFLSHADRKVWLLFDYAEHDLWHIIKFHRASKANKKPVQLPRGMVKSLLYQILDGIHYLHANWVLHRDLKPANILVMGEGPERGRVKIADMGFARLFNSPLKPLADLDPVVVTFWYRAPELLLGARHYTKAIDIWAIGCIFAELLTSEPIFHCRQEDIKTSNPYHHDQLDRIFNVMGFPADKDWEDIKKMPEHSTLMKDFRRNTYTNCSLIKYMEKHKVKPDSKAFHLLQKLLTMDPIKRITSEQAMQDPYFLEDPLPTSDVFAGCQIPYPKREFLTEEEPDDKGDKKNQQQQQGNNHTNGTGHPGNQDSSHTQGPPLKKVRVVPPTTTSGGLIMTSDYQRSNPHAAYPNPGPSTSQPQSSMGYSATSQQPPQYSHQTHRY
T1 sequence (P24863 whole entry partner): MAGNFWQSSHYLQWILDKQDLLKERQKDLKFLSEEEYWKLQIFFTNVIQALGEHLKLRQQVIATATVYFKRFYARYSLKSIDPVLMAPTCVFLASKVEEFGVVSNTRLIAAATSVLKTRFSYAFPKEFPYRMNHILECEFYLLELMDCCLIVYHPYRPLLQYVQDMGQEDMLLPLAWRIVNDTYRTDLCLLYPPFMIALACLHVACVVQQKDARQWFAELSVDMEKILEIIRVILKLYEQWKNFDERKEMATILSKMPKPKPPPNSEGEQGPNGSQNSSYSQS

Compound	IC50
Cn1cc(-c2ccc(-c3cncc4ccc(N5CCC(=O)C5)cc34)cc2)cn1 [Compound 115, 1-{4-[4-(1-Methyl-1H-pyrazol-4-yl)-phenyl]-isoquinolin-6-yl}-pyrrolidin-3-one]	10 to 100 nM
COC1CN(C(=O)c2ccc3c(N)ncc(-c4ccc5c(c4)CC(=O)N5C)c3c2)C1 [Compound 177, 5-[1-Amino-6-(3-methoxy-azetidine-1-carbonyl)-isoquinolin-4-yl]-1-methyl-1,3-dihydro-indol-2-one]	10 to 100 nM
Cn1cc(-c2ccc(-c3cncc4ccc(N5CCCCC5=O)cc34)cc2)cn1 [Compound 127, 1-{4-[4-(1-Methyl-1H-pyrazol-4-yl)-phenyl]-isoquinolin-6-yl}-piperidin-2-one]	501 to 1000 nM
Cc1cncc2ccc(C(=O)N3CCC[C@H]3c3ccc(Br)cc3)nc12 [Compound 92, (S)-(2-(4-bromophenyl)pyrrolidin-1-yl)(8-methyl-1,6-naphthyridin-2-yl)methanone]	< 10 nM
Cn1cc(-c2ccc(-c3cncc4ccc(NS(C)(=O)=O)cc34)cc2)cn1 [Compound 98, N-{4-[4-(1-Methyl-1H-pyrazol-4-yl)-phenyl]-isoquinolin-6-yl}-methanesulfonamide]	< 10 nM
Cc1cncc2ccc(C(=O)N[C@@H](C)c3ccccc3)nc12 [Compound 62, (S)-8-methyl-N-(1-phenylethyl)-1,6-naphthyridine-2-carboxamide]	101 to 500 nM
CC1CCC(=O)N1c1ccc2cncc(-c3ccc(-c4cnn(C)c4)cc3)c2c1 (stereo not shown) [Compound 114, 5-Methyl-1-{4-[4-(1-methyl-1H-pyrazol-4-yl)-phenyl]-isoquinolin-6-yl}-pyrrolidin-2-one]	10 to 100 nM
Cn1cc(-c2ccc(-c3cncc4ccc(NS(=O)(=O)C5CC5)cc34)cc2)cn1 [Compound 162, Cyclopropanesulfonic acid {4-[4-(1-methyl-1H-pyrazol-4-yl)-phenyl]-isoquinolin-6-yl}-amide]	< 10 nM
CC(=O)NC(=O)c1ccc2cncc(-c3ccc(-c4cnn(C)c4)cc3)c2n1 [Compound 9, 8-[4-(1-Methyl-1H-pyrazol-4-yl)-phenyl]-[1,6]naphthyridine-2-carboxylic acid acetyl-amide]	< 10 nM

Next, values leading:

IC50	Compound
10 to 100 nM	Cn1cc(-c2ccc(-c3cncc4ccc(-c5nnn(C)n5)cc34)cc2)cn1 [Compound 117, 4-(4-(1-methyl-1H-pyrazol-4-yl)phenyl)-6-(2-methyl-2H-tetrazol-5-yl)isoquinoline]
10 to 100 nM	CN1c2ccc(-c3cncc4ccc(CO)nc34)cc2CS1(=O)=O [Compound 51, [8-(1-Methyl-2,2-dioxo-2,3-dihydro-1H-benzo[c]isothiazol-5-yl)-[1,6]naphthyridin-2-yl]-methanol]
101 to 500 nM	Cc1ccc2cncc(-c3ccc4c(c3)CS(=O)(=O)N4C)c2n1 [Compound 65, 1-Methyl-5-(2-methyl-1,6-naphthyridin-8-yl)-1,3-dihydrobenzo[c]isothiazole 2,2-dioxide]
< 10 nM	CN1c2ccc(-c3cncc4ccc(C(=O)NC5CC5)nc34)cc2CS1(=O)=O [Compound 21, 8-(1-Methyl-2,2-dioxo-2,3-dihydro-1H-benzo[c]isothiazol-5-yl)-[1,6]naphthyridine-2-carboxylic acid cyclopropylamide]
10 to 100 nM	Cn1cc(-c2ccc(-c3cncc4ccc(S(C)(=O)=O)cc34)cc2)cn1 [Compound 189, 6-Methanesulfonyl-4-[4-(1-methyl-1H-pyrazol-4-yl)-phenyl]-isoquinoline]
10 to 100 nM	CN1C(=O)Cc2cc(-c3cncc4ccc(C(=O)N5CC(F)(F)C5)cc34)ccc21 [Compound 170, 5-[6-(3,3-Difluoro-azetidine-1-carbonyl)-isoquinolin-4-yl]-1-methyl-1,3-dihydro-indol-2-one]
< 10 nM	CN1c2ccc(-c3cncc4ccc(-c5nccn5C)cc34)cc2CS1(=O)=O [Compound 93, 1-methyl-5-(6-(1-methyl-1H-imidazol-2-yl)isoquinolin-4-yl)-1,3-dihydrobenzo[c]isothiazole 2,2-dioxide]
